From patent US7563758B2, “Enzymatic production of peracids using Lactobacilli having perhydrolysis activity” (E. I. du Pont de Nemours and Company, priority 2005, dated 2009)

Key:
Assay in all cases: Minimum biocidal concentration (MBC) of peracetic acid, XTT microtiter assay
Assay type in all cases: cell-based
Conditions in all cases: 5-log kill; exposure at room temperature (e.g., 10 minutes)
[1] = tested on: Staphylococcus aureus ATCC 6538
Source text: (§1) The method described by J. Gabrielson, et al. (J. Microbiol. Methods 50: 63-73 (2002)) can be employed for determination of the Minimum Biocidal Concentration (MBC) of peracids, or of hydrogen peroxide and enzyme substrates. The assay method is based on XTT reduction inhibition, where XTT ((2,3-bis[2-methoxy-4-nitro-5-sulfophenyl]-5-[(phenylamino)carbonyl]-2H-tetrazolium, inner salt, monosodium salt) is a redox dye that indicates microbial respiratory activity by a change in optical density (OD) measured at 490 nm or 450 nm. However, there are a variety of other methods available for testing the activity of disinfectants and antiseptics including, but not limited to viable plate counts, direct microscopic counts, dry weight, turbidity measurements, absorbance, and bioluminescence (see, for example Brock, Semour S., Disinfection, Sterilization, and Preservation, 5th edition, Lippincott Williams & Wilkins, Philadelphia, Pa., USA; 2001).
(§2) The minimum biocidal concentration (MBC) of peracid required to produce a 5-log kill of Staphylococcus aureus ATCC 6538, Salmonella cholerasuis ATCC 10708 and Pseudomonas aeruginosa ATCC 15442 was determined according to the following procedure. Cultures were grown in 5 mL LB broth (Media Tech, Inc.) for 17-24 hours at 35° C. with shaking and subsequently plated on Trypticase Soy Agar (VWR). At least 3 consecutive daily transfers were made. Plates were incubated for 20-24 hours at 35° C.±2° C. Each culture was removed from the agar surface by flooding with 5-7 mL of phosphate buffer, pH 7.2. (e.g., Butterflies or equivalent) and transferred into a sterile flask. The OD600 of the culture suspension was measured and the cell suspension was diluted in phosphate buffer to a final cell density between 1-2 E+05 and 1-2 E+06 CFU/mL, where the final cell concentration was adjusted to produce the concentration needed for the number of logs kill required. The peracetic acid solution to be tested was diluted by doubling dilutions from 600 ppm to 0.5 ppm in sterile water. Test inoculum (100 μL) was added each well of a 96-well microtiter plate, columns 1-11; column 12 was employed for a blank check using sterile dd water in place of inoculum. Decreasing concentrations of peracid solution (100 μL) was added across columns 1-10, and the plates held at room temperature for the required exposure time (e.g., 10 minutes). A Neutralization/detection plate was prepared with Letheen Broth (Difco #268110) and XTT (4 mM stock in water, 2,3-bis-[2-methoxy-4-nitro-5-sulfophenyl]-2H-tetrazolium-5-carboxanilide inner salt); 190 μL was added to each well of a fresh 96 well microtiter plate. From each well of the exposure plate, a 10 μL aliquot was transferred to the neutralization/detection plate. An OD450 reading was measured, and the plate incubated at 35° C.±2° C. for 24 hours. A second OD450 was measured, where orange color was indicative of cell growth. A suspension to test organism(s) was prepared equal to 1-2 E+04 CFU/mL. Add A 10 μL aliquot of this suspension was added to each negative well except column 12, and the plates incubated at 35° C.±2° C. for 24 hours. […] The MBC of peracetic acid generated enzymatically from triacetin by Lactobacillus plantarum ATCC BAA793 (Table 11) indicated equivalency with commercial peracetic acid.

[2] = tested on: Pseudomonas aeruginosa ATCC 15442
Source text: as §1, §2

[3] = tested on: Salmonella cholerasuis ATCC 10708
Source text: as §1, §2

| SMILES | MBC in ppm PAA, Staphylococcus aureus ATCC 6538 [1] | MBC in ppm PAA, Pseudomonas aeruginosa ATCC 15442 [2] | MBC in ppm PAA, Salmonella cholerasuis ATCC 10708 [3] [ppm PAA] |
| --- | --- | --- | --- |
| CC(=O)OO [L. plantarum ATCC BAA793, peracetic acid] | 1.4 ppm PAA | 1.4 ppm PAA | 1.4 |
| CC(=O)OO [Sigma Lot # 07726EC, peracetic acid, reference compound] | 1.8-2.4 ppm PAA | 2.4-14 ppm PAA | – |
